# Columns and labels:
# K-562 = assay: NCI60 screening, Leukemia, K-562; assay type: cell-based, human
# MOLT-4 = assay: NCI60 screening, Leukemia, MOLT-4; assay type: cell-based, human
# EKVX = assay: NCI60 screening, Non-Small Cell Lung Cancer, EKVX; assay type: cell-based, human
# HOP-62 = assay: NCI60 screening, Non-Small Cell Lung Cancer, HOP-62; assay type: cell-based, human
# HOP-92 = assay: NCI60 screening, Non-Small Cell Lung Cancer, HOP-92; assay type: cell-based, human
# NCI-H460 = assay: NCI60 screening, Non-Small Cell Lung Cancer, NCI-H460; assay type: cell-based, human
# HCT-116 = assay: NCI60 screening, Colon Cancer, HCT-116; assay type: cell-based, human
# SF-268 = assay: NCI60 screening, CNS Cancer, SF-268; assay type: cell-based, human
# LOX IMVI = assay: NCI60 screening, Melanoma, LOX IMVI; assay type: cell-based, human
# MDA-MB-435 = assay: NCI60 screening, Melanoma, MDA-MB-435; assay type: cell-based, human
# UACC-257 = assay: NCI60 screening, Melanoma, UACC-257; assay type: cell-based, human
# OVCAR-8 = assay: NCI60 screening, Ovarian Cancer, OVCAR-8; assay type: cell-based, human
# SN12C = assay: NCI60 screening, Renal Cancer, SN12C; assay type: cell-based, human
# HS 578T = assay: NCI60 screening, Breast Cancer, HS 578T; assay type: cell-based, human
# [1] = test system: human tumor cell lines of the cancer screening panel; assay: NCI 60 cell line screening, whole panel, comparison with OSU-A9; assay type: cell-based; conditions: OSU-A9 data not shown
# PC-3 xenograft tumor = PC-3 xenograft tumor growth in nude mice, oral gavage; assay type: in vivo; conditions: after 7 weeks, P<0.05
# Protocol: FIG. 2 provides three graphs (A-C) showing the in vivo effects of OSU-A9M (C) versus OSU-A9 (A) and OSU-A9 F (B), each at 25 and 50 mg/kg per day by oral gavage, on suppressing PC-3 xenograft tumor growth in nude mice (n=6).
# The efficacy studies were therefore repeated with OSU-A9M and OSU-A9F, following 42 days and 49 days treatment, respectively, versus OSU-A9 with 49-day treatment.
# In all three treatments, the body weights of drug-treated mice were not affected. No signs of overt toxicity were observed.
# [2] = Body weight of PC-3 xenograft mice receiving the experimental diet; assay type: in vivo, nude mice; conditions: 450 ppm in diet, compared to controls
# Protocol: Given the increased potency of OSU-A9M compared to the other lead derivatives, an experimental diet was formulated. An AIN-76A rodent diet (American Institute of Nutrition; including primarily casein, sucrose, and corn starch) containing 450 ppm OSU-A9M was made to deliver approximately 50 mg/kg of drug per day to each mouse estimated by food consumption and body weight measurements.
# [3] = Homo sapiens, read-out: LC50 (the source's name)
structure (smiles),measurement,setting,value
"Cc1ccc2c(c1)c(CO)cn2S(=O)(=O)c1ccc(Cl)c([N+](=O)[O-])c1 [OSU-A9M, [1-(4-chloro-3-nitro-benzenesulfonyl)-5-methyl-1H-indol-3-yl]-methanol]",TGI,K-562,3.03E−6
same,GI50,"K-562; Homo sapiens, K562",1020 nM
same,CC50,"K-562; Homo sapiens, K562, read-out: LC50 (the source's name)",8960 nM
same,Percent Growth,K-562; Log10 Concentration −4.0,−70%
same,Percent Growth,K-562; Log10 Concentration −5.0,−55%
same,Percent Growth,K-562; Log10 Concentration −6.0,51%
same,Percent Growth,K-562; Log10 Concentration −7.0,106%
same,Percent Growth,K-562; Log10 Concentration −8.0,98%
same,TGI,MOLT-4,1.96E−6
same,GI50,MOLT-4; Homo sapiens,334 nM
same,LC50,MOLT-4; Homo sapiens,18300 nM
same,Percent Growth,MOLT-4; Log10 Concentration −4.0,−64%
same,Percent Growth,MOLT-4; Log10 Concentration −5.0,−45%
same,Percent Growth,MOLT-4; Log10 Concentration −6.0,19%
same,Percent Growth,MOLT-4; Log10 Concentration −7.0,85%
same,Percent Growth,MOLT-4; Log10 Concentration −8.0,92%
same,TGI,EKVX,3.15E−6
same,GI50,EKVX; Homo sapiens,1600 nM
same,CC50,EKVX; [3],6210 nM
same,Percent Growth,EKVX; Log10 Concentration −4.0,−93%
same,Percent Growth,EKVX; Log10 Concentration −5.0,−85%
same,Percent Growth,EKVX; Log10 Concentration −6.0,85%
same,Percent Growth,EKVX; Log10 Concentration −7.0,99%
same,Percent Growth,EKVX; Log10 Concentration −8.0,91%
same,TGI,HOP-62,3.11E−6
same,GI50,HOP-62; Homo sapiens,1740 nM
same,CC50,HOP-62; [3],5580 nM
same,Percent Growth,HOP-62; Log10 Concentration −4.0,−99%
same,Percent Growth,HOP-62; Log10 Concentration −5.0,−100%
same,Percent Growth,HOP-62; Log10 Concentration −6.0,97%
same,Percent Growth,HOP-62; Log10 Concentration −7.0,95%
same,Percent Growth,HOP-62; Log10 Concentration −8.0,98%
same,TGI,HOP-92,2.67E−6
same,GI50,HOP-92; Homo sapiens,1310 nM
same,CC50,HOP-92; [3],5430 nM
same,Percent Growth,HOP-92; Log10 Concentration −4.0,−97%
same,Percent Growth,HOP-92; Log10 Concentration −5.0,−93%
same,Percent Growth,HOP-92; Log10 Concentration −6.0,69%
same,Percent Growth,HOP-92; Log10 Concentration −7.0,76%
same,Percent Growth,HOP-92; Log10 Concentration −8.0,92%
same,TGI,NCI-H460,3.36E−6
same,GI50,NCI-H460; Homo sapiens,1830 nM
same,LC50 (concentration killing 50% of cells),NCI-H460; Homo sapiens,6180 nM
same,Percent Growth,NCI-H460; Log10 Concentration −4.0,−89%
same,Percent Growth,NCI-H460; Log10 Concentration −5.0,−89%
same,Percent Growth,NCI-H460; Log10 Concentration −6.0,100%
same,Percent Growth,NCI-H460; Log10 Concentration −7.0,99%
same,Percent Growth,NCI-H460; Log10 Concentration −8.0,96%
same,TGI,HCT-116,1.57E−6
same,GI50,HCT-116; Homo sapiens,461 nM
same,LC50,HCT-116; Homo sapiens,3970 nM
same,Percent Growth,HCT-116; Log10 Concentration −4.0,−100%
same,Percent Growth,HCT-116; Log10 Concentration −5.0,−100%
same,Percent Growth,HCT-116; Log10 Concentration −6.0,24%
same,Percent Growth,HCT-116; Log10 Concentration −7.0,100%
same,Percent Growth,HCT-116; Log10 Concentration −8.0,101%
same,TGI,SF-268,3.01E−6
same,GI50,SF-268; Homo sapiens,1650 nM
same,CC50,SF-268; [3],5490 nM
same,Percent Growth,SF-268; Log10 Concentration −4.0,−100%
same,Percent Growth,SF-268; Log10 Concentration −5.0,−100%
same,Percent Growth,SF-268; Log10 Concentration −6.0,92%
same,Percent Growth,SF-268; Log10 Concentration −7.0,89%
same,Percent Growth,SF-268; Log10 Concentration −8.0,86%
same,TGI,LOX IMVI,2.86E−7
same,GI50,LOX IMVI; Homo sapiens,138 nM
same,CC50,LOX IMVI; [3],594 nM
same,Percent Growth,LOX IMVI; Log10 Concentration −4.0,−100%
same,Percent Growth,LOX IMVI; Log10 Concentration −5.0,−100%
same,Percent Growth,LOX IMVI; Log10 Concentration −6.0,−86%
same,Percent Growth,LOX IMVI; Log10 Concentration −7.0,72%
same,Percent Growth,LOX IMVI; Log10 Concentration −8.0,84%
same,TGI,MDA-MB-435,2.93E−6
same,GI50,MDA-MB-435; Homo sapiens,1520 nM
same,LC50 (50% lethal concentration),MDA-MB-435; Homo sapiens,5640 nM
same,Percent Growth,MDA-MB-435; Log10 Concentration −4.0,−92%
same,Percent Growth,MDA-MB-435; Log10 Concentration −5.0,−94%
same,Percent Growth,MDA-MB-435; Log10 Concentration −6.0,82%
same,Percent Growth,MDA-MB-435; Log10 Concentration −7.0,87%
same,Percent Growth,MDA-MB-435; Log10 Concentration −8.0,95%
same,TGI,UACC-257,3.31E−6
same,GI50,UACC-257; Homo sapiens,1720 nM
same,CC50,UACC-257; [3],6400 nM
same,Percent Growth,UACC-257; Log10 Concentration −4.0,−96%
same,Percent Growth,UACC-257; Log10 Concentration −5.0,−84%
same,Percent Growth,UACC-257; Log10 Concentration −6.0,91%
same,Percent Growth,UACC-257; Log10 Concentration −7.0,94%
same,Percent Growth,UACC-257; Log10 Concentration −8.0,96%
same,TGI,OVCAR-8,3.95E−6
same,GI50,OVCAR-8; Homo sapiens,1930 nM
same,CC50,OVCAR-8; [3],8090 nM
same,Percent Growth,OVCAR-8; Log10 Concentration −4.0,−84%
same,Percent Growth,OVCAR-8; Log10 Concentration −5.0,−65%
same,Percent Growth,OVCAR-8; Log10 Concentration −6.0,96%
same,Percent Growth,OVCAR-8; Log10 Concentration −7.0,101%
same,Percent Growth,OVCAR-8; Log10 Concentration −8.0,97%
same,TGI,SN12C,2.99E−6
same,GI50,SN12C; Homo sapiens,1410 nM
same,CC50,SN12C; [3],6310 nM
same,Percent Growth,SN12C; Log10 Concentration −4.0,−88%
same,Percent Growth,SN12C; Log10 Concentration −5.0,−81%
same,Percent Growth,SN12C; Log10 Concentration −6.0,73%
same,Percent Growth,SN12C; Log10 Concentration −7.0,92%
same,Percent Growth,SN12C; Log10 Concentration −8.0,68%
same,TGI,HS 578T,3.05E−6
same,GI50,HS 578T; Homo sapiens,1020 nM
same,CC50,HS 578T; [3],9110 nM
same,Percent Growth,HS 578T; Log10 Concentration −4.0,−63%
same,Percent Growth,HS 578T; Log10 Concentration −5.0,−54%
same,Percent Growth,HS 578T; Log10 Concentration −6.0,51%
same,Percent Growth,HS 578T; Log10 Concentration −7.0,88%
same,Percent Growth,HS 578T; Log10 Concentration −8.0,83%
same,Potency in suppressing cancer cell growth compared with OSU-A9,[1],significantly higher potency
same,Suppression of the volume of PC-3 tumor growth,PC-3 xenograft tumor; 25 mg/kg per day by gavage,44.0%
same,Suppression of the volume of PC-3 tumor growth,PC-3 xenograft tumor; 50 mg/kg per day by gavage,67.6%
same,Body weights of mice receiving the experimental diet,[2],unchanged compared to controls

# Source: patent publication US8680133B2, “Alkyl indole-3-carbinol-derived antitumor agents” (The Ohio State University Research Foundation, priority 2009, dated 2014)
